According to patent US5138069A (E. I. Du Pont de Nemours and Company, priority 1988, dated 1992):
Like-named read-outs stand apart in the source and are kept apart here.

Legend:
AII receptor = test: Angiotensin II receptor binding (displacement of 3H-AII); conditions: read-out: Angiotensin II Receptor Binding IC50, rat adrenal cortical microsomes, 2 nM 3H-AII, 1 hour, room temperature
Experimental: The assay was carried out according to the method described by [Glossmann et al., J. Biol. Chem., 249, 825 (1974)], but with some modifications. The reaction mixture contained rat adrenal cortical microsomes (source of AII receptor) in Tris buffer and 2 nM of ^3 H-AII with or without potential AII antagonist. This mixture was incubated for 1 hour at room temperature and the reaction was subsequently terminated by rapid filtration and rinsing through glass micro-fibre filter. Receptor-bound ^3 H-AII trapped in filter was quantitated by scintillation counting.
(§1) Compounds listed in Table 26 were tested in the same manner as described for Table 25, except that in the test for antihypertensive effects in renal hypertensive rats, the compounds were administered orally at 30 mg/kg and intravenously at 3 mg/kg.

Renal Hypertensive Rats = test: Antihypertensive effects in renal hypertensive rats; type: in vivo; conditions: Rattus norvegicus, Table 25; for minimal effective dose at 10 mg/kg: intravenous, 10 mg/kg or less; for minimal effective dose at 100 mg/kg: oral, 100 mg/kg or less
Experimental: This procedure increases blood pressure by increasing renin production with consequent elevation of AII levels. Compounds are administered orally at 100 mg/kg and/or intravenously via a cannula in the jugular vein at 10 mg/kg. Arterial blood pressure is continuously measured directly through a carotid artery cannula and recorded using a pressure transducer and a polygraph. Blood pressure levels after treatment are compared to pretreatment levels to determine the antihypertensive effects of the compounds (See Table 25).
as §1

[1] = Table 25, tested as sodium salt

| IC50 (AII receptor; Table 25) | SMILES | further results |
| --- | --- | --- |
| 510 nM | CCCCc1nc(Cl)c(/C=C/COC(C)=O)n1Cc1ccc(NC(=O)c2ccccc2NS(=O)(=O)C(F)(F)F)cc1 [Example 232, 3-[1-(4-((N-Trifluoromethanesulfonyl)-anthranilamido)benzyl)-2-butyl-4-chloroimidazol-5-yl]-3-propen-1-ol acetate, E isomer] | minimal effective dose at 10 mg/kg (Renal Hypertensive Rats): < 10 mg/kg |
| 600 nM | CCCCc1nc(Cl)c(/C=C/CO)n1Cc1ccc(NC(=O)c2ccccc2NS(=O)(=O)C(F)(F)F)cc1 [Example 233, 3-[1-(4-((N-trifluoromethanesulfonyl)-anthranilamido)benzyl)-2-butyl-4-chloroimidazol-5-yl]-propen-1-ol, E isomer] | minimal effective dose at 10 mg/kg (Renal Hypertensive Rats): < 10 mg/kg; minimal effective dose at 100 mg/kg (Renal Hypertensive Rats): < 100 mg/kg |
| – | CCCCc1nc(Cl)c(CC(=O)OC)n1Cc1ccc(NC(=O)c2ccccc2NS(=O)(=O)C(F)(F)F)cc1 [Example 30, Methyl 2-butyl-4-chloro-1-[4-((N-trifluoromethanesulfonyl)anthranilamido)benzyl]-imidazole-5-acetate] | IC50 (AII receptor; [1]): 390 nM; minimal effective dose at 10 mg/kg (Renal Hypertensive Rats; tested as sodium salt): < 10 mg/kg; minimal effective dose at 100 mg/kg (Renal Hypertensive Rats; tested as sodium salt): < 100 mg/kg |
| 53 nM | CCC=Cc1nc(C(F)(F)F)c(CO)n1Cc1ccc(-c2ccccc2C(=O)O)cc1 [Example 137] | minimal effective dose at 10 mg/kg (Renal Hypertensive Rats): < 10 mg/kg; minimal effective dose at 100 mg/kg (Renal Hypertensive Rats): < 100 mg/kg |
| – | CCCCc1nc(Cl)c(CC(=O)OC)n1Cc1ccc(NC(=O)c2cc3ccccc3cc2C(=O)O)cc1 [Example 9] | IC50 (AII receptor; [1]): 5800 nM |
| 2800 nM | O=C(O)c1ccccc1C(=O)Nc1ccc(Cn2ccnc2CC2CCCCC2)cc1 [Example 71] | – |
| – | CCC=Cc1nc(Cl)c(CO)n1Cc1ccc(-c2ccccc2-c2nnn[nH]2)cc1 [Example 139] | IC50 (AII receptor; Table 26): 11 nM |
| 350 nM | CCCCc1nc(Cl)c(CN2CCN(c3ccccc3OC)CC2)n1Cc1ccc(-c2ccccc2-c2nnn[nH]2)cc1 [Example 354, 2-n-Butyl-4-chloro-5-[(4-(2-methoxyphenyl)piperazin-1-yl)methyl]-1-[(2'-(1H-tetrazol-5-yl)biphenyl-4-yl)methyl]imidazole] | IC50 (AII receptor; Table 26): 350 nM |
| 5700 nM | CCCCc1nc(Cl)c(CC(=O)OC)n1Cc1ccc(NC(=O)/C=C\C(=O)O)cc1 [Example 6] | – |
| 3900 nM | CCCCc1nc(Cl)c(CC(=O)O)n1Cc1ccc(NS(=O)(=O)C(F)(F)F)cc1 [Example 25] | – |
| 4400 nM | COCCc1nc(Cl)c(CO)n1Cc1ccc(NC(=O)c2ccccc2NS(=O)(=O)C(F)(F)F)cc1 [Example 56, 4-Chloro-5-hydroxymethyl-2-(2-methoxyethyl)-1-[4-((N-trifluoromethanesulfonyl)anthranilamido)benzyl]imidazole] | – |
| – | CCCc1nc(C(F)(F)C(F)(F)F)c(CO)n1Cc1ccc(-c2ccccc2-c2nn[nH]n2)cc1 [Example 124F] | IC50 (AII receptor; Table 26): 1 nM |
| 6100 nM | CCCCc1nc(Cl)c(COC)n1Cc1ccc(C(=O)N[C@@H](Cc2ccccc2)C(=O)O)cc1 [Example 82] | – |
| – | CCCCc1nc(Cl)c(CNS(=O)(=O)C(F)(F)F)n1Cc1ccc(C(=O)c2ccccc2C(=O)O)cc1 [Example 217, 2-Butyl-1-[4-(2-carboxybenzoyl)benzyl]-4-chloro-5-[(trifluoromethylsulfonamido)methyl]imidazole] | IC50 (AII receptor; [1]): 2700 nM |
| 5000 nM | O=C(Nc1ccc(Cn2ccnc2CC2CCCCC2)cc1)c1ccccc1NS(=O)(=O)C(F)(F)F [Example 61] | – |
| 1200 nM | CCCCCc1nccn1Cc1ccc(NC(=O)c2ccccc2NS(=O)(=O)C(F)(F)F)cc1 [Example 60] | – |
| 1100 nM | CCCCc1nc(Cl)c(Cc2nn[nH]n2)n1Cc1ccc(NC(=O)c2ccccc2NS(=O)(=O)C(F)(F)F)cc1 [Example 52] | – |
| – | CCCCc1nc(Cl)c(COC(C)=O)n1Cc1ccc(C(=O)O)cc1 [Example 20, 5-Acetoxymethyl-2-butyl-1-(4-carboxybenzyl)-4-chloroimidazole] | IC50 (AII receptor; [1]): 5300 nM |

| IC50 (AII receptor; Table 25) | SMILES | further results |
| --- | --- | --- |
| – | CCCCc1nc(Cl)c(CN=[N+]=[N-])n1Cc1ccc(C(=O)c2ccccc2C(=O)O)cc1 [Example 206] | IC50 (AII receptor; [1]): 1400 nM |
| 1700 nM | CCc1nc(Cl)c(CO)n1Cc1ccc(-c2ccccc2C(=O)O)cc1 [Example 107] | – |
| 940 nM | CCCCc1nc(Cl)c(CC(=O)OC)n1Cc1ccc(NC(=O)c2cccc(NS(=O)(=O)C(F)(F)F)c2)cc1 [Example 33] | – |
| 6400 nM | CCCCc1nc(Cl)c(COC)n1Cc1ccc(C(=O)N2CCC[C@H]2C(=O)O)cc1 [Example 83] | – |
| 8000 nM | CCCCc1nc(Cl)c(CO)n1Cc1ccc(N2C(=O)c3ccccc3C2=O)cc1 [Example 28, 2-Butyl-4-chloro-5-hydroxymethyl-1-(4-N-phthalimidobenzyl)imidazole] | – |
| – | CCc1nccn1Cc1ccc(NC(=O)c2ccccc2C(=O)O)cc1 [Example 62] | IC50 (AII receptor; [1]): 9200 nM |
| 20 nM | CCCc1nc(Cl)c(CO)n1Cc1ccc(-c2ccccc2-c2nn[nH]n2)cc1 [Example 113] | – |
| 640 nM | CCCCc1nc(Cl)c(CC(=O)O)n1Cc1ccc(NC(=O)c2ccccc2NS(=O)(=O)C(F)(F)F)cc1 [Example 31, 2-Butyl-4-chloro-1-[4-((N-trifluoromethanesulfonyl)anthranilamido)benzyl]imidazole-5-acetic acid] | – |
| – | CCCCc1nc(Cl)c(COC(C)=O)n1Cc1ccc(NC(=O)c2ccccc2C(=O)O)cc1 [Example 10] | IC50 (AII receptor; [1]): 190 nM |
| 170 nM | CCCCc1nc(Cl)c(/C=C/CO)n1Cc1ccc(NC(=O)c2ccccc2C(=O)O)cc1 [Example 241] | – |
| – | CCCCc1nc(Cl)c(CC(=O)O)n1Cc1ccc(NC(=O)c2ccccc2C(=O)O)cc1 [Example 32, 2-Butyl-1-[4-(2-carboxybenzamido)-benzyl]-4-chloroimidazole-5-acetic acid] | IC50 (AII receptor; [1]): 430 nM |
| 76 nM | CCCCc1nc(Cl)c(/C=C/COC(C)=O)n1Cc1ccc(NC(=O)c2ccccc2C(=O)O)cc1 [Example 231, 3-[2-Butyl-4-chloro-1-(4-(2-carboxybenzamido)benzyl)imidazol-5-yl]-3-propen-1-ol acetate, E isomer] | – |
| – | CCCCc1nc(C#N)c(C(N)=O)n1Cc1ccc(-c2ccccc2-c2nnn[nH]2)cc1 [Example 342, 2-n-Butyl-5-carboxamido-4-cyano-1-[(2'-(1H-tetrazol-5-yl)biphenyl-4-yl)methyl]imidazole] | IC50 (AII receptor; Table 26): 37 nM |
| 530 nM | CCCCc1nc(Cl)c(/C=C/C(=O)OCC)n1Cc1ccc(NC(=O)c2ccccc2C(=O)O)cc1 [Example 228, 3-[2-Butyl-4-chloro-1-(4-(2-carboxybenzamido)benzyl)imidazol-5-yl]-propenoic acid ethyl ester, E isomer] | – |
| – | CCCCc1nc(Cl)c(Cn2ccnc2)n1Cc1ccc(C(=O)c2ccccc2C(=O)O)cc1 [Example 205] | IC50 (AII receptor; [1]): 2500 nM |
| 120 nM | CCCCc1nc(Cl)c(CC(C)C(=O)N[C@H](C)c2ccccc2)n1Cc1ccc(NC(=O)c2ccccc2C(=O)O)cc1 (single isomer, unassigned) [Example 239, d and l 3-[1-(4-(2-Carboxybenzamido)benzyl-2-butyl-4-chloroimidazol-5-yl]-2-methylpropanoic acid, d-(+)-α-methylbenzylamide] | – |
| 110 nM | CCCCc1nc(Cl)c(CCCOC(C)=O)n1Cc1ccc(NC(=O)c2ccccc2C(=O)O)cc1 [Example 247] | – |
| 200 nM | CCCCc1nc(Cl)c(/C=C/C(C)O)n1Cc1ccc(NC(=O)c2ccccc2C(=O)O)cc1 (centres unmarked) [Example 243] | – |
